Test results published in patent US20020137929A1, “1 - (3-heterocyclylphenyl) isothiourea, -isourea, -guanidine and -amidine herbicidal agents” (Intellectual Property Department, BASF Aktiengesellschaft, priority 1998, published 2002).

Key:
[1] = tested on: ABUTH (Velvetleaf); test: Postemergence herbicidal evaluation; type: in vivo, Abutilon theophrasti; settings: for Herbicidal rating ABUTH: postemergence
Summary of the method: (§1)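 Young plants, roughly two weeks from seeding, receive the active ingredient as a sprayed dispersion (acetone/water 50/50, 0.5% TWEEN 20) at 40 psi. Doses span about 0.0156 to 0.500 kg/ha. A visual score from 0 to 9 compares treated with control plants four to five weeks on.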

[2] = tested on: GALAP (Galium); test: Postemergence herbicidal evaluation; type: in vivo, Galium aparine; settings: for Herbicidal rating GALAP: postemergence
Summary of the method: as §1

[3] = tested on: MOOVA (Monochoria); test: Postemergence weed control under flooded paddy conditions; type: in vivo, Monochoria vaginalis; settings: postemergence weeds, 3-4 weeks after treatment
Summary of the method: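 With weeds 3 to 5 cm tall and rice at the 1.5 to 2.5 leaf stage, containers were flooded and water held 1.5 to 3 cm above soil. Compounds in 50/50 v/v aqueous/acetone went into the flood water at about 0.0313 to 0.500 kg/ha a.i. Effects were visually rated 0–9 against controls after three to four weeks in the greenhouse.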

[4] = tested on: GALAP (Galium); test: Preemergence herbicidal evaluation; type: in vivo, Galium aparine; settings: rated 4-5 weeks after treatment
Summary of the method: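 Scores (0–9) reflect visual comparison with control plants for stand, vigor, malformation, size and chlorosis. Compound was applied to the soil after sowing, before emergence, as an aqueous acetone spray (about 0.0156–0.500 kg/ha), and cups were kept in a greenhouse for 4–5 weeks.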

[5] = rate 0.1250 kg/ha, rating scale 0-9
[6] = rate 0.2500 kg/ha, rating scale 0-9

Structure (SMILES)	Herbicidal rating ABUTH ([1]; rate 0.0156 kg/ha)	Herbicidal rating ABUTH ([1]; rate 0.0313 kg/ha)	Herbicidal rating ABUTH ([1]; rate 0.0625 kg/ha)	Herbicidal rating GALAP ([2]; rate 0.0156 kg/ha)	Herbicidal rating GALAP ([2]; rate 0.0313 kg/ha)	Herbicidal rating GALAP ([2]; rate 0.0625 kg/ha)	Preemergence herbicidal rating GALAP ([4]; 0.0156 kg/ha)	Preemergence herbicidal rating GALAP ([4]; 0.0313 kg/ha)	Preemergence herbicidal rating GALAP ([4]; 0.0625 kg/ha)	Preemergence herbicidal rating GALAP ([4]; 0.1250 kg/ha)	Preemergence herbicidal rating GALAP ([4]; 0.2500 kg/ha)	Herbicidal rating ABUTH ([1]; rate 0.1250 kg/ha)	Herbicidal rating GALAP ([2]; rate 0.1250 kg/ha)	Preemergence herbicidal rating GALAP ([4]; 0.5000 kg/ha)	further results
CCOC(=O)CN1C(=O)C(CC(=O)OC(C)C)SC1=Nc1cc(-n2c(=O)cc(C(F)(F)F)n(C)c2=O)c(F)cc1Cl (centres unmarked) [Compound 55, 2-{{2-Chloro-5-[3,6-dihydro-3-methyl-2,6-dioxo-4-(trifluoromethyl)-1(2H)-pyrimidinyl]-4-fluoro-phenyl}imino}-4-oxo-3,5-thiazolidinediacetic acid, 3-ethyl isopropyl ester]															Postemergence herbicidal rating ABUTH ([1]; Rate 0.0158 kg/ha): 8.0; Postemergence herbicidal rating ABUTH ([1]; Rate 0.0313 kg/ha): 9.0; Postemergence herbicidal rating ABUTH ([1]; Rate 0.0625 kg/ha): 9.0; Postemergence herbicidal rating ABUTH ([1]; Rate 0.1250 kg/ha): 9.0; Postemergence herbicidal rating ABUTH ([1]; Rate 0.2500 kg/ha): 9.0; Postemergence herbicidal rating GALAP ([2]; Rate 0.0158 kg/ha): 6.0; Postemergence herbicidal rating GALAP ([2]; Rate 0.0313 kg/ha): 3.3; Postemergence herbicidal rating GALAP ([2]; Rate 0.0625 kg/ha): 7.0; Postemergence herbicidal rating GALAP ([2]; Rate 0.1250 kg/ha): 9.0; Postemergence herbicidal rating GALAP ([2]; Rate 0.2500 kg/ha): 9.0; Herbicidal rating MOOVA ([3]; rate 0.0313 kg/ha): 9.0; Herbicidal rating MOOVA ([3]; rate 0.0625 kg/ha): 9.0; Herbicidal rating MOOVA ([3]; rate 0.1250 kg/ha): 9.0; Herbicidal rating MOOVA ([3]; rate 0.2500 kg/ha): 9.0
CCOC(=O)CN1C(=O)C(Br)SC1=Nc1cc(-n2c(=O)cc(C(F)(F)F)n(C)c2=O)c(F)cc1Cl (centres unmarked) [Compound 153, Ethyl 5-bromo-2-[{2-chloro-5-[3,6-dihydro-3-methyl-2,6-dioxo-4-(trifluoromethyl)-1(2H)-pyrimidinyl]-4-fluorophenyl}imino}-4-oxo-3-thiazolidineacetate]	1.0	1.0	5.0	0.0	0.0	0.0									Preemergence herbicidal rating GALAP [4, 5]: 0.0; Preemergence herbicidal rating GALAP [4, 6]: 1.0
C=C1SC(=Nc2cc(-n3c(=O)cc(C(F)(F)F)n(C)c3=O)c(F)cc2Cl)N(CC(=O)OCC)C1=O [Compound 154]	9.0	9.0	9.0	3.0	3.0	4.0									Preemergence herbicidal rating GALAP ([4]; rate 0.0156 kg/ha, rating scale 0-9): 0.0; Preemergence herbicidal rating GALAP ([4]; rate 0.0313 kg/ha, rating scale 0-9): 0.0; Preemergence herbicidal rating GALAP ([4]; rate 0.0625 kg/ha, rating scale 0-9): 4.0; Preemergence herbicidal rating GALAP [4, 5]: 9.0; Preemergence herbicidal rating GALAP [4, 6]: 9.0
CCN1C(=O)CSC1=Nc1cc(-n2c(=O)cc(C(F)(F)F)n(C)c2=O)c(F)cc1Cl [Compound 159, 3-{4-Chloro-5-[(3-ethyl-4-oxo-2-thiazolidinyl-idene)amino]-2-fluorophenyl}-1-methyl-6-(trifluoromethyl)-2,4(1H,3H)-pyrimidinedione]	9.0	9.0	9.0	0.0	1.0	4.0	0.0	0.0	1.0	5.0	5.0				
CCOC(=O)CN1C(=O)C(OC)SC1=Nc1cc(-n2c(=O)cc(C(F)(F)F)n(C)c2=O)c(F)cc1Cl (centres unmarked) [Compound 160, Ethyl 2-{{2-chloro-5-[3,6-dihydro-3-methyl-2,6-dioxo-4-(trifluoromethyl)-1(2H)-pyrimidinyl]-4-fluorophenyl}imino}-5-methoxy-4-oxo-3-thiazolidineacetate]	9.0	9.0	9.0	0.0	0.0	2.0	0.0	0.0	0.0	0.0	7.0	9.0	4.0	7.0	
CC(C)N1C(=O)CSC1=Nc1cc(-n2c(=O)cc(C(F)(F)F)n(C)c2=O)c(F)cc1Cl [Compound 164, 3-{4-Chloro-2-fluoro-5-[(3-isopropyl-4-oxo-2-thiazolidinylidene)amino]phenyl}-1-methyl-6-(trifluoromethyl)-2,4(1H,3H)-pyrimidinedione]	9.0	9.0	9.0	3.0	4.0	7.0	3.0	4.0	4.0	9.0	7.0	9.0	6.0	9.0	
Cn1c(C(F)(F)F)cc(=O)n(-c2cc(N=C3SCC(=O)N3C3CCCC3)c(Cl)cc2F)c1=O [Compound 166, 3-{4-Chloro-5-[(3-cyclopentyl-4-oxo-2-thiazolidinylidene)amino]-2-fluorophenyl}-1-methyl-6-(trifluoromethyl)-2,4(1H,3H)-pyrimidinedione]	2.0	1.0	3.0	0.0	0.0	0.0	0.0	0.0	2.0	5.0	7.0	9.0	2.0	8.0	
Cn1c(C(F)(F)F)cc(=O)n(-c2cc(N=C3SCC(=O)N3C3CCC3)c(Cl)cc2F)c1=O [Compound 168, 3-{4-Chloro-5-[(3-cyclobutyl-4-oxo-2-thiazolidinylidene)amino]-2-fluorophenyl}-1-methyl-6-(trifluoromethyl)-2,4(1H,3H)-pyrimidinedione]	9.0	9.0	9.0	0.0	1.0	3.0	0.0	0.0	0.0	0.0	3.0				
CCOC(=O)CN1C(=O)C(CC(=O)O)SC1=Nc1cc(N2C(=O)CC(C(F)(F)F)CC2=O)c(F)cc1Cl (centres unmarked) [Compound 170, 2-{{2-Chloro-5-[2,6-dioxo-4-(trifluoromethyl)-piperidino]-4-fluorophenyl}imino}-4-oxo-3,5-thiazolidinediacetic acid, 3-ethyl ester]	9.0	9.0	9.0	0.0	3.0	4.0	0.0	0.0	0.0	0.0	3.0				
COCCCN1C(=O)CSC1=Nc1cc(-n2c(=O)cc(C(F)(F)F)n(C)c2=O)c(F)cc1Cl [Compound 172, 3-{4-Chloro-2-fluoro-5-{[3-(3-methoxypropyl)-4-oxo-2-thiazolidinylidene]amino}phenyl}-1-methyl-6-(trifluoromethyl)-2,4(1H, 3H)-pyrimidinedione]							0.0	0.0	5.0	7.0	9.0				Postemergence herbicidal rating ABUTH ([1]; Rate 0.0313 kg/ha): 9.0; Postemergence herbicidal rating ABUTH ([1]; Rate 0.0625 kg/ha): 9.0; Postemergence herbicidal rating ABUTH ([1]; rate 0.0156 kg/ha): 9.0; Postemergence herbicidal rating GALAP ([2]; Rate 0.0313 kg/ha): 4.0; Postemergence herbicidal rating GALAP ([2]; Rate 0.0625 kg/ha): 7.0; Postemergence herbicidal rating GALAP ([2]; rate 0.0156 kg/ha): 3.0
